Assay type in all cases: in vitro ADME
A short description of series [1]: Plasma protein binding (equilibrium dialysis), rat. To be noted: for fraction unbound: equilibrium dialysis, read-out: PPB (%), rat (converted); for recovery: plasma (undiluted, freshly thawed), PPB assay recovery. Here is the method:
(§1) The assay was performed in a multiple-use 96-well dialysis unit (HTD96b dialyzer). Each individual well unit consisted of 2 chambers separated by a vertically aligned dialysis membrane of predetermined pore size (MWCO 12-14 kDa). 120 μl of non-diluted freshly thawed mouse, rat or human plasma spiked with the compound (1 μM, final DMSO concentration 1%) was added to one chamber and the same volume of PBS buffer pH 7.4 to the other chamber. HTD96b dialyzer was covered with adhesive sealing film and incubated at 37° C., shaking at 100 rpm for 5 hours.
(§2) For samples preparation, an aliquot of the content of each chamber had been mixed with the same volume of the blank opposite matrix. In order to define non-specific loss of the compound during this assay, a standard solution was created by mixing an aliquot of spiked plasma with blank buffer without dialysis. Samples were diluted 10-fold with 100% acetonitrile with subsequent plasma proteins sedimentation by centrifuging at 6000 rpm for 5 minutes. Supernatants were analyzed using HPLC system coupled with tandem mass spectrometer (API3000 PE Sciex). Acquisition and analysis of the data were performed using Analyst 1.5.2 software (PE Sciex). The percentage of plasma protein bound compound and recovery were calculated using following equations: […]
Prior to the start of the experiment, dialysis membranes (membrane strips, MW cut-off 12-14 kDa, HTDialysis, Cat.NoJl 101) are soaked in deionized water for 60 min, transferred and left overnight in 20% EtOH. The day of experiment, a 10 mM stock solution of the compound in DMSO is diluted with a factor 10 in DMSO. This solution is further diluted in freshly thawed human, rat, mouse or dog plasma (BioIVT) with a final concentration of 5 μM and final DMSO concentration of 0.5%.
From this solution, an aliquot of 50 μL was taken and matrix matched with an equivalent volume of PBS for the recovery plate, after which 6 volumes of STOP solution were added to the recovery plate. For these recovery plates, no incubation is done.
Equilibrium Dialysis Device (96-well, model HTD96b, HTDialysis, Cat. No. #1006) is assembled according to manufacturer's instructions. Immediately after assembly, a volume of 100 μL of plasma (spiked with compound) is placed on one side of the well and another 100 μL of blank PBS buffer are added to the other side, respectively. Each compound is tested in duplicate. Acebutolol and Nicardipine are used as low and very high binding controls, except for the mouse, Caffeine is used as low binder instead Acebutolol. If the PPB values for these controls are not in the range determined by the historical data, the assay is not validated.
The plate is incubated for 4 h at 37° C. while shaking at 230 rpm. Thereafter, an aliquot of 50 μL is taken from each side of the well and matrix matched (mix of equal volumes of spiked plasma with blank PBS buffer and samples from buffer compartment with blank plasma). Matrix matched samples are further mixed with 3 volumes of STOP solution (acetonitrile/MeOH 2/1 with diclofenac as internal standard). After brief mixing and centrifugation (at 2400 rpm for 15 min, at +4° C.), the supernatant is filtered and transferred into new 96-well plates for analysis on LC-MS/MS (systems API4000).
(§3) The percentage of plasma protein bound compound and recovery were calculated using following equations:
(§4) with: • Cplasma=peak area of the compound in the plasma/peak area of the IS in the plasma • Cbuffer=peak area of the compound in the buffer/peak area of the IS in the buffer • ‘Concentration’ is the ratio between compound and IS peak areas
The recovery is a control, which allows to be sure that the compound has not a non-specific binding to the plates or is not stable in the plasma in these conditions: […]

Series [2] can be described thus: Plasma protein binding (equilibrium dialysis), human. To be noted: for fraction unbound: equilibrium dialysis, read-out: PPB (%), human (converted); for recovery: plasma (undiluted, freshly thawed), PPB assay recovery. Here is the method: as §1, §2, §3, §4
(§5) The recovery is a control, which allows to be sure that the compound has not a non-specific binding to the plates or is not stable in the plasma in these conditions:
(§6) with: • PBS=(ratio of the peak area of the compound/peak area of the IS) in the PBS compartment after 4 h • Plasma=(ratio of the peak area of the compound/peak area of IS) in the plasma compartment after 4 h • Recov=Recovery=ratio of the peak are of the compound I the well recovery/peak area of the IS in the well recovery at TO
(§7) The solubility of the compound in the final test concentration in PBS is checked by microscope to indicate whether precipitation is observed or not. If a precipitate is observed, no data of PPB is generated.

A short description of series [3]: Plasma protein binding (equilibrium dialysis), mouse. To be noted: for fraction unbound: equilibrium dialysis, read-out: PPB (%), mouse (converted); for recovery: plasma (undiluted, freshly thawed), PPB assay recovery. As for the experimental part:
as §1, §2, §3, §4, §5, §6, §7

Each structure is given as a SMILES string. Where only a bound is given, the exact number is not on record here.

As for `CC(C)Cc1ccc(-c2nn[nH]n2)c(N2CCN(Cc3nc4ccccc4c(=O)[nH]3)CC2)c1` [Compound A-31, 2-[[4-[5-isobutyl-2-(2H-tetrazol-5-yl)phenyl]piperazin-1-yl]methyl]-3H-quinazolin-4-one], the figures for the fraction unbound in series [1], in series [2] and in series [3] were below 0.1, below 0.08 and below 0.05, respectively. Also, the results for the recovery in series [1], in series [2] and in series [3] were 84%, 82% and 88%, respectively.

For the molecule `CC(C)Cc1ccc(-c2nn[nH]n2)c(N2CCN(Cc3cccnn3)CC2)c1` [Compound A-90, 3-[[4-[5-isobutyl-2-(2H-tetrazol-5-yl)phenyl]piperazin-1-yl]methyl]pyridazine], the fraction unbound in series [1] was 0.23; in series [2], 0.05; in series [3], 0.22. Also, the recovery in series [1] turned out to be 105%; in series [2], 83%; in series [3], 97%.

With `CC(C)Cc1cc(F)c(-c2nn[nH]n2)c(N2CCN(Cc3cccnn3)C(C)C2)c1` (stereo not shown) [Compound A-173, 3-[[4-[3-fluoro-5-isobutyl-2-(2H-tetrazol-5-yl)phenyl]-2-methyl-piperazin-1-yl]methyl]pyridazine], the fraction unbound is 0.19 in series [1], 0.05 in series [2] and 0.12 in series [3]. Moreover, the recovery in series [1] was found to be 100%; in series [2], 94%; in series [3], 92%.

`CC(C)Cc1cc(F)c(-c2nn[nH]n2)c(N2CCN(Cc3cccnn3)[C@@H](C)C2)c1` [Compound A-174, 3-[[(2S)-4-[3-fluoro-5-isobutyl-2-(2H-tetrazol-5-yl)phenyl]-2-methyl-piperazin-1-yl]methyl]pyridazine]: the fraction unbound in series [1] is 0.017; in series [2], 0.026; in series [3], 0.027. Besides, the figures for the recovery in series [1], in series [2] and in series [3] were 90%, 99% and 95%, respectively.

For `CCC1CN(c2cc(CC(C)C)cc(F)c2-c2nn[nH]n2)CCN1Cc1cccnn1` (stereo not shown) [Compound A-178, 3-[[2-ethyl-4-[3-fluoro-5-isobutyl-2-(2H-tetrazol-5-yl)phenyl]piperazin-1-yl]methyl]pyridazine], the fraction unbound in series [1] is 0.12; in series [2] it was 0.04; in series [3] it was 0.1. Besides, the recovery in series [1] is 96%; in series [2], 99%; in series [3] it was 93%.

Regarding `CCC1CN(Cc2cccnn2)CCN1c1cc(CC(C)C)cc(F)c1-c1nn[nH]n1` (stereo not shown) [Compound A-181, 3-[[3-ethyl-4-[3-fluoro-5-isobutyl-2-(2H-tetrazol-5-yl)phenyl]piperazin-1-yl]methyl]pyridazine], the fraction unbound is 0.12 in series [1], 0.03 in series [2] and 0.07 in series [3]. The recovery amounted to 96% in series [1], 95% in series [2] and 96% in series [3].

On to `CC(C)Cc1cc(F)c(-c2nn[nH]n2)c(N2CC(C)N(Cc3cccnn3)CC2C)c1` (stereo not shown) [Compound A-183, 3-[[4-[3-fluoro-5-isobutyl-2-(2H-tetrazol-5-yl)phen-yl]-2,5-dimethyl-piperazin-1-yl]-methyl]pyridazine], for which the fraction unbound is 0.23 in series [1], 0.06 in series [2] and 0.13 in series [3]. Also, the figures for the recovery in series [1], in series [2] and in series [3] were 92%, 96% and 90%, respectively.

`CC(C)Cc1cc(F)c(-c2nn[nH]n2)c(N2CCN(Cc3ccccn3)[C@@H](C)C2)c1` [Compound A-217, (2S)-4-[3-fluoro-5-isobutyl-2-(2H-tetrazol-5-yl)phenyl]-2-methyl-1-(2-pyridylmethyl)piperazine]: the fraction unbound in series [1] and in series [2] was 0.004 in each case. The recovery in series [1] amounted to 98%; in series [2] it was 100%.

(Values after patent US20240368133A1, “Compounds for the Treatment of Pain, in Particular, Neuropathic Pain, and/or Other Diseases or Disorders that are Associated with AT2R and/or AT2R Mediated Signaling” (Confo Therapeutics N.V., priority 2021, published 2024).)
